Assay results published in patent publication US7727516B2, “Reduction of hair growth” (The Procter & Gamble Company, priority 2006, dated 2010).

Experiments:
[1] = test system: human epidermal melanocytes; test: Western blot of melanogenic proteins in human epidermal melanocytes culture; assay type: cell-based; conditions: 10 uM, 48 hours
Procedure: Total cellular proteins of human melanocytes were harvested in a lysis buffer (Total protein extraction kit; CHEMICON International, Inc). Twenty […]g protein were loaded per lane, separated by 10% sodium dodecyl sulfate polyacrylamide gel electrophoresis, and transferred to nitrocellulose membrane at 100 V for 1 h. Following overnight blocking with 5% nonfat dry milk/bovine serum albumin (BSA) in Tris-phosphate-buffered saline (PBS) (0.5% Tween-20 in PBS) at 4° C., the membrane was incubated overnight with a monoclonal antibody against either tyrosinase or tyrosinase-related protein-1 or actin at a dilution of 1:1000. […] After extensive washing the membrane was incubated for 1 min with the enzyme-linked chemiluminescence Western Blotting Detection Reagent (Amersham, Buckinghamshire, U.K.), and bands were detected on preflashed Kodak X-Omat film and developed after several seconds of exposure.
To determine whether a TRPM8 and TRPA1 agonist can affect pigment producing activity of the melanocytes, expression of tyrosinase was analyzed in the hair follicles treated with 10 uM icilin by immunohistochemistry. […] A decrease in tyrosinase and tyrosinase-related protein (TRP)-1 expression levels were observed 48 hours after 10 uM icilin treatment, compared to the control, as determined by Western blot analysis. […]

[2] = test system: human hair follicles in growth phase (anagen); test: Human hair follicle growth assay (hair follicle culture model); assay type: cell-based; conditions: follicle length day 6 minus day 0, statistically significant, read-out: hair growth inhibition compared to the control
Procedure: Human hair follicles in growth phase (anagen) were isolated from face-lift tissue (obtained from plastic surgeons). The skin was sliced into thin strips exposing 2-3 rows of follicles that could readily be dissected. Follicles were placed into William's E medium (Life Technologies, Gaithersburg, Md.) supplemented with 2 mM L-glutamine, 10 µg/ml insulin, 10 ng/ml hydrocortisone, and an antibiotic/antimicotic mixture as described in Philpott et al. (1990) J. Cell Sci. 97 (Pt3):463-71. The follicles were incubated in 24-well plates (1 follicle/well) at 37° C. in an atmosphere of 5% CO2 and 100% humidity for different periods of time (Philpott et al. (1990) supra). The length of hair follicle was assessed using an image analysis software system. To determine the effect of molecules modulating TRPM8/TRPA1 activity on hair growth, hair follicles were incubated with icilin (Tocris Bioscience) and L-Menthol, L-menthyl lactate (Sigma). Hair follicle images were taken in the 24-well plates under the dissecting scope under a power of 20×. Hair follicle length was measured on day 0 (day follicles were placed in culture) and again on day 6. The growth of hair fiber was calculated by the subtracting the follicle length on day 0 from that determined on day 6. To identify whether modulation of TRPM8 and TRPA1 activity could affect hair growth, their agonists were tested in the hair follicle culture model. Hair follicle treatment with 10 uM of menthol, icilin, and menthyl lactate, caused statistically significant hair growth inhibition by 40%, 45% and 60% respectively, compared to the control. […] Thus, activation of either TRPM8 or TRPA1 by a cooling agent leads to a significant reduction of hair growth rate in vitro.

[3] = test system: Ki-67 immunoreactivity in the hair matrix and outer root sheath; test: Ki-67 immunofluorescence for proliferating cells in cultured hair follicles; assay type: cell-based, human; conditions: hair follicle treatment, concentration-dependent
Procedure: For detection of proliferating cells the indirect immunofluorescence protocol using rabbit monoclonal antibody against Ki-67. Eight […]m hair follicle sections were fixed in formalin and postfixed in ethanol/acetic acid. […] Counterstaining was performed using HOECHST 33342 dye ([…] in PBS; 10 minutes). Each phase was interspersed by a washing step (three times) in PBS. Finally, sections were mounted using VectaShield Vector Laboratories). All sections were examined under a Olympus BX 60 fluorescent microscope and photodocumented with the help of a digital image analysis system (CoolSnap™ cooled CCD camera, Alpha Innotech) To identify whether modulation of TRPM8 and TRPA1 activity could affect hair growth, their agonists were tested in the hair follicle culture model. Hair follicle treatment with 10 uM of menthol, icilin, and menthyl lactate, caused statistically significant hair growth inhibition by 40%, 45% and 60% respectively, compared to the control. […] Thus, activation of either TRPM8 or TRPA1 by a cooling agent leads to a significant reduction of hair growth rate in vitro.

[4] = test system: tyrosinase expression in hair follicles; test: Tyrosinase immunohistochemistry in treated hair follicles; assay type: cell-based, human; conditions: 10 uM
Procedure: For the immunodetection of melanogenic proteins, sections were incubated with either mouse monoclonal antibody against human tyrosinase or chicken monoclonal antibody against human p-mel 17 (Neomarker and Zymed, respectively; 1:100, overnight), followed by incubation with TRITC-labeled […] (Jackson ImmunoResearch; 45 min, 37° C.) and FITC-labeled goat anti-chicken IgG, respectively. Next, sections were counterstained with Hoechst 33342 (1:300, 15 min) for identification of cell nuclei, and mounted using VectaShield (Vector Laboratories). All sections were examined under a Olympus BX 60 fluorescent microscope and photodocumented with the help of a digital image analysis system (CoolSnap™ cooled CCD camera, Alpha Innotech) To determine whether a TRPM8 and TRPA1 agonist can affect pigment producing activity of the melanocytes, expression of tyrosinase was analyzed in the hair follicles treated with 10 uM icilin by immunohistochemistry. Tyrosinase expression was decreased in treated hair follicles, compared to the control. In addition, the effects of icilin on melanogenic protein expression were tested in human epidermal melanocytes culture. A decrease in tyrosinase and tyrosinase-related protein (TRP)-1 expression levels were observed 48 hours after 10 uM icilin treatment, compared to the control, as determined by Western blot analysis. […]

tyrosinase expression in treated hair follicles compared to the control [4] | Structure (SMILES) | tyrosinase expression level compared to the control [1] | tyrosinase-related protein (TRP)-1 expression level compared to the control [1] | inhibition at 10 µM [2] [%] | cell proliferation (Ki-67 immunoreactivity in hair matrix and outer root sheath) [3]
decreased | O=C1NC(c2cccc([N+](=O)[O-])c2)=CCN1c1ccccc1O [icilin, 1-(2-Hydroxyphenyl)-4-(3-nitrophenyl)-1,2,3,6-tetrahydropyrimidin-2-one] | decrease | decrease | 45 | inhibition of cell proliferation in a concentration-dependent manner
– | CC1CCC(C(C)C)C(O)C1 (stereo not shown) [menthol] | – | – | 40 | –
– | CC1CCC(C(C)C)C(OC(=O)C(C)O)C1 (stereo not shown) [menthyl lactate] | – | – | 60 | –
